Data from US20220313835A1, “AMINOQUINOLINE COMPOUNDS, IMMUNOCONJUGATES, AND USES THEREOF” (BOLT BIOTHERAPEUTICS, INC., priority 2019, published 2022).
pEC50: −log10 of the molar value.

What was measured:
human TLR7 = target: T1, human TLR7 (Homo sapiens, UniProt Q9NYK1); test: HEK Reporter Assay, HEK293 NFKB reporter cells expressing human TLR7; format: cell-based; details: read-out: HEK-293 hTLR7 EC50
T1 construct: host or cells: HEK293 NF-kB reporter cells
T1 sequence (Q9NYK1 27-1049): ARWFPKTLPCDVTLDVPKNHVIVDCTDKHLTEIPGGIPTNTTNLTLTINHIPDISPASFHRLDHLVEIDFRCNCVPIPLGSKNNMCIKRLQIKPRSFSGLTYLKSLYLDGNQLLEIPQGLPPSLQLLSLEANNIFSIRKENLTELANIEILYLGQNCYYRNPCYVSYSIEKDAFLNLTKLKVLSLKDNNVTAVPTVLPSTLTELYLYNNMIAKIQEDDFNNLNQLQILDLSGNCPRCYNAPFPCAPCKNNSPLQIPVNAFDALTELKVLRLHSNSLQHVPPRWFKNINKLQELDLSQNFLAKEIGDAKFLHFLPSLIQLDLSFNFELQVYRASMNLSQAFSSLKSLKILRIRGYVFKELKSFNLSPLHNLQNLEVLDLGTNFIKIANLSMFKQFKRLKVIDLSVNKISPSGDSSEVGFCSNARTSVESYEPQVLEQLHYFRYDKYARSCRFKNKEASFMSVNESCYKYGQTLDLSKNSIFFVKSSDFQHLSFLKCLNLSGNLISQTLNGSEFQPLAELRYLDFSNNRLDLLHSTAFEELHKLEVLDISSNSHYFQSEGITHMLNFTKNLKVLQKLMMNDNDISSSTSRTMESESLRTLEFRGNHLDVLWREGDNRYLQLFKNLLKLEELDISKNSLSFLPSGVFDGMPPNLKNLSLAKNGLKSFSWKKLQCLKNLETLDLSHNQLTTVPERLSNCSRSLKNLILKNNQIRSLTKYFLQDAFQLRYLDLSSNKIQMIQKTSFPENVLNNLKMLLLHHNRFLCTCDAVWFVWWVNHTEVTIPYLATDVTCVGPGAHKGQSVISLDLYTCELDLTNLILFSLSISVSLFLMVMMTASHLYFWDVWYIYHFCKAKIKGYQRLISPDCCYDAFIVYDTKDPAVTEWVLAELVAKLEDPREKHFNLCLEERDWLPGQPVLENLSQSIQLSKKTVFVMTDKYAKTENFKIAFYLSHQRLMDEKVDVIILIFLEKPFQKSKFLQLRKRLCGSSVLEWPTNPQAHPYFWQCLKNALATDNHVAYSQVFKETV
Protocol: (§1) Each compound was characterized by mass spectrometry and shown to have the mass indicated. Activity against HEK293 NFKB reporter cells expressing human TLR7 or human TLR8 was measured according to Example 31.
(§2) HEK293 reporter cells expressing human TLR7 or human TLR8 were purchased from Invivogen and vendor protocols were followed for cellular propagation and experimentation. Briefly, cells were grown to 80-85% confluence at 5% CO2 in DMEM supplemented with 10% FBS, Zeocin, and Blasticidin. Cells were then seeded in 96-well flat plates at 4×10^4 cells/well with substrate containing HEK detection medium and immunostimulatory molecules. Activity was measured using a plate reader at 620-655 nm wavelength.

human TLR8 = target: T2, human TLR8 (Homo sapiens, UniProt Q9NR97); test: HEK Reporter Assay, HEK293 NFKB reporter cells expressing human TLR8; format: cell-based; details: read-out: HEK-293 hTLR8 EC50
T2 construct: host or cells: HEK293 NF-kB reporter cells
T2 sequence (Q9NR97 27-1041): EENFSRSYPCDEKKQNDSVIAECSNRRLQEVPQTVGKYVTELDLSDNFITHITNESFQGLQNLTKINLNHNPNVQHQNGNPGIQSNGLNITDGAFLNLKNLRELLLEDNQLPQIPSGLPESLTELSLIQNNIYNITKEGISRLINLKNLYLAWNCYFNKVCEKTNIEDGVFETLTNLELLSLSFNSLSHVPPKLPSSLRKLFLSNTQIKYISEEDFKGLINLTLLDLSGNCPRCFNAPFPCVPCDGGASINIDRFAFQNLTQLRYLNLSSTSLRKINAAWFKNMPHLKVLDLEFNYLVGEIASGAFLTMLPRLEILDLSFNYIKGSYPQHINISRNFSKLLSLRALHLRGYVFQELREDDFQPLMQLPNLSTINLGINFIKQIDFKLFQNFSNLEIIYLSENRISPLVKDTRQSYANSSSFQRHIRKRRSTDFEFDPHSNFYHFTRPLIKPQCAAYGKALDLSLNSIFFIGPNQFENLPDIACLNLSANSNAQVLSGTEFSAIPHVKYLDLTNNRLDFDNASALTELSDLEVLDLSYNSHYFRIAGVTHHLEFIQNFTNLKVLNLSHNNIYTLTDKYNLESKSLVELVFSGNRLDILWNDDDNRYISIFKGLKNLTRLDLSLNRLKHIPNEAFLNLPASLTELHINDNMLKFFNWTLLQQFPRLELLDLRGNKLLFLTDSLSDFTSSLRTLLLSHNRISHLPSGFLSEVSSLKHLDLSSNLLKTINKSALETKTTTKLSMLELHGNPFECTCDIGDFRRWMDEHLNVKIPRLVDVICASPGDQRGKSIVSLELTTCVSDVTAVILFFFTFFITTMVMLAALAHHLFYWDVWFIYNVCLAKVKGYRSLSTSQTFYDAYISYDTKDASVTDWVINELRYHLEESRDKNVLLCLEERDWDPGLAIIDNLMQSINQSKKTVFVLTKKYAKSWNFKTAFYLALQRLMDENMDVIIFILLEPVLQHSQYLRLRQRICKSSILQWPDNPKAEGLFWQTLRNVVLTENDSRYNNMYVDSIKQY
Protocol: as §1, §2

Row | SMILES | pEC50 (human TLR7) | pEC50 (human TLR8)
1 | CCCCCc1cc2c(CCCCCNC(=O)OC(C)(C)C)cccc2nc1N [AQ-3, tert-butyl (5-(2-amino-3-pentylquinolin-5-yl)pentyl)carbamate] | < 5.05 | < 5.05
2 | CCCCCc1cc2ccc(-c3cccc(S(=O)(=O)N4CC(CO)C4)c3)cc2nc1N [AQ-5, (1-((3-(2-amino-3-pentylquinolin-7-yl)phenyl)sulfonyl)azetidin-3-yl)methanol] | < 5.05 | 6.25
3 | CCCCCc1cc2ccc(-c3cccc(S(=O)(=O)N4CC(CN)C4)c3)cc2nc1N [AQ-12, 7-[3-[3-(aminomethyl)azetidin-1-yl]sulfonylphenyl]-3-pentyl-quinolin-2-amine] | < 5.05 | 5.83
4 | CCCN(CCC)C(=O)c1cc2ccccc2nc1N [AQ-6, 2-amino-N,N-dipropylquinoline-3-carboxamide] | < 5.05 | < 5.05
5 | CCCCCc1cc2c(CCCCCN(C)C)cccc2nc1N [AQ-8, 5-(5-(dimethylamino)pentyl)-3-pentylquinolin-2-amine] | < 5.05 | 5.99
6 | CCCCCc1cc2c(CC3CCCN3C)cc(-c3cccc(S(=O)(=O)N4CC(CO)C4)c3)cc2nc1N (stereo not shown) [AQ-15, [1-[3-[2-amino-5-[(1-methylpyrrolidin-2-yl)methyl]-3-pentyl-7-quinolyl]phenyl]sulfonylazetidin-3-yl]methanol] | < 5.05 | 5.61
7 | CCCCCc1cc2ccc(-c3cccc(S(=O)(=O)N4CC(CNC(=O)OC(C)(C)C)C4)c3)cc2nc1N [AQ-11, tert-butylN-[[1-[3-(2-amino-3-pentyl-7-quinolyl)phenyl]sulfonylazetidin-3-yl]methyl] carbamate] | < 5.05 | < 5.05
8 | CCCCCc1cc2c(CCCCCNC(C)=O)cccc2nc1N [AQ-1, N-(5-(2-amino-3-pentylquinolin-5-yl)pentyl)acetamide] | 6.60 | < 5.05
9 | CCCCCc1cc2c(CCCCCN)cc(-c3cccc(S(=O)(=O)N4CC(CO)C4)c3)cc2nc1N [AQ-13, [1-[3-[2-amino-5-(5-aminopentyl)-3-pentyl-7-quinolyl]phenyl]sulfonylazetidin-3-yl]methanol] | < 5.05 | < 5.05
10 | CCCCCc1cc2c(CCCCCNC(=O)Nc3cccc(C#N)c3)cccc2nc1N [AQ-2, 1-(5-(2-amino-3-pentylquinolin-5-yl)pentyl)-3-(3-cyanophenyl)urea] | < 5.05 | < 5.05
11 | CCCN(CCC)C(=O)c1cc2c(CCCCCN)cccc2nc1N [AQ-7, 2-amino-5-(5-aminopentyl)-N,N-dipropylquinoline-3-carboxamide] | < 5.05 | < 5.05
12 | CCCCCc1cc2c(C#CCCCNC(=O)OC(C)(C)C)cc(-c3cccc(S(=O)(=O)N4CC(CO)C4)c3)cc2nc1N [AQ-16, tert-butyl N-[5-[2-amino-7-[3-[3-(hydroxymethyl)azetidin-1-yl]sulfonylphenyl]-3-pentyl-5-quinolyl]pent-4-ynyl]carbamate] | < 5.05 | < 5.05
13 | CCCCCc1cc2c(CCCCCNC=O)cccc2nc1N [AQ-4, N-(5-(2-amino-3-pentylquinolin-5-yl)pentyl)formamide] | < 5.05 | < 5.05
14 | CCCCCc1cc2c(CCCCCN/C(=N\c3cccc(C#N)c3)NCCOC)cccc2nc1N [AQ-18, 1-(5-(2-amino-3-pentylquinolin-5-yl)pentyl)-3-(3-cyanophenyl)-2-(2-methoxyethyl)guanidine] | < 5.05 | < 5.05
15 | CCCCCc1cc2ccc(C(=O)Nc3ccc(N4CCC(C(=O)NCCN)CC4)nc3)cc2nc1N [AQ-14, 2-amino-N-(6-(4-((2-aminoethyl)carbamoyl)piperidin-1-yl)pyridin-3-yl)-3-pentylquinoline-7-carboxamide] | < 5.05 | < 5.05
16 | CCCCCc1cc2ccc(-c3cccc(S(=O)(=O)N4CC(CN/C(=N\CCOC)Nc5cccc(C#N)c5)C4)c3)cc2nc1N [AQ-17, 1-((1-((3-(2-amino-3-pentylquinolin-7-yl)phenyl)sulfonyl)azetidin-3-yl)methyl)-3-(3-cyanophenyl)-2-(2-methoxyethyl)guanidine] | < 5.05 | < 5.05
17 | CCCCCc1cc2ccc(C(=O)Nc3ccc(N4CCC(C(=O)NCCNC(=O)OC(C)(C)C)CC4)nc3)cc2nc1N [AQ-10, tert-butyl N-[2-[[1-[5-[(2-amino-3-pentyl-quinoline-7-carbonyl)amino]-2-pyridyl]piperidine-4-carbonyl]amino]ethyl]carbamate] | < 5.05 | < 5.05
